Test results as given in ChEMBL document CHEMBL4270566, “New aziridine-based inhibitors of cathepsin L-like cysteine proteases with selectivity for the Leishmania cysteine protease LmCPB2.8” (Eur J Med Chem, 2018).
pEC50, pKi: −log10 of the molar value. Active and inactive are the calls of the source. The rule behind the calls is not given here.

Legend:
Rhodesain = Rhodesain (Trypanosoma brucei rhodesiense, UniProt Q95PM0); assay: Inhibition of Trypanosoma brucei rhodesiense rhodesain using Z-Phe-Arg-AMC as substrate by fluorometric assay
Sequence of Rhodesain (Q95PM0 whole entry): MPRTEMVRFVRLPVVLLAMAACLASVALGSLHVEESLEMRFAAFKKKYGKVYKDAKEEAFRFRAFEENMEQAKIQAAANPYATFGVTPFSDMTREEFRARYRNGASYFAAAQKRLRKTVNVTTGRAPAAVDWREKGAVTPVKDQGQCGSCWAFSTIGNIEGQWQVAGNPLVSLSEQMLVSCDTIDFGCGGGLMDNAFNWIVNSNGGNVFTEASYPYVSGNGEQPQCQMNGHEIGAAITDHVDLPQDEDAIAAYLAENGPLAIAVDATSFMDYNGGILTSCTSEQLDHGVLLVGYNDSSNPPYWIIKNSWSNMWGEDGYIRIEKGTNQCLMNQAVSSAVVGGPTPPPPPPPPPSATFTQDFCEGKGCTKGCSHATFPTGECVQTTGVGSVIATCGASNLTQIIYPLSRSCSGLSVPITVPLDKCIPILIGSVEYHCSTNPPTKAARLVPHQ

[1] = target: Cruzipain (Trypanosoma cruzi) (UniProt P25779); assay: Inhibition of Trypanosoma cruzi cruzain at 20 uM using Z-Phe-Arg-AMC as substrate by fluorometric assay relative to control
Sequence of Cruzipain (Trypanosoma cruzi) (P25779 123-467 limits assumed): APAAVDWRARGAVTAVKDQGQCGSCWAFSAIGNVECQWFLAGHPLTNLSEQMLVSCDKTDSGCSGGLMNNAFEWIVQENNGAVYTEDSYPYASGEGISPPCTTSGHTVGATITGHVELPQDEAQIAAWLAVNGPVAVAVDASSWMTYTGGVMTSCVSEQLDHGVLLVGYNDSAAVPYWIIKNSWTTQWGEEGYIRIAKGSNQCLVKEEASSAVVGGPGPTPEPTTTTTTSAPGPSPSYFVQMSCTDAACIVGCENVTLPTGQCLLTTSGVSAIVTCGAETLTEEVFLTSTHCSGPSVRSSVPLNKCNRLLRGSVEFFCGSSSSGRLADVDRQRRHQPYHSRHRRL

Leishmania major [2] = assay: Antileishmanial activity against Leishmania major promastigotes; format: functional, organism-based
Leishmania major [3] = assay: Antileishmanial activity against luciferase-fused Leishmania major amastigotes infected in BMDM after 24 hrs by luminescence assay; format: functional, organism-based
J774 = assay: Cytotoxicity against mouse J774 cells; format: cell-based
[4] = target: T1, Falcipain 2 (Plasmodium falciparum) (UniProt Q9N6S8); assay: Inhibition of Plasmodium falciparum falcipain 2 at 20 uM using Z-Phe-Arg-AMC as substrate by fluorometric assay relative to control
T1 sequence (whole entry): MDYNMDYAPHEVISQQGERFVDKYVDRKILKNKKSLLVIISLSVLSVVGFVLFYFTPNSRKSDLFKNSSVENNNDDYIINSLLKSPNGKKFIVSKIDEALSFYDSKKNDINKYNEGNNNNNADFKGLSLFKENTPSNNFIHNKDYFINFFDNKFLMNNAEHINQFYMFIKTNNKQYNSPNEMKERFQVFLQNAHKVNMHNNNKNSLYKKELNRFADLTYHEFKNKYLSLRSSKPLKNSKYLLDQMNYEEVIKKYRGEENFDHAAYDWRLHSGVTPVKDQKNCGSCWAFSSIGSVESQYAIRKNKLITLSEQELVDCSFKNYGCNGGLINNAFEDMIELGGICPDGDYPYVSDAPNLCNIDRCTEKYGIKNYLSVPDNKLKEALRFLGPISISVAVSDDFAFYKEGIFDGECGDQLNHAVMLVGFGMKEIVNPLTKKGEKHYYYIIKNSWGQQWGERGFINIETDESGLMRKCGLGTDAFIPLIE

[5] = Inhibition of Leishmania mexicana cathepsin L-like protease CPB2.8 using Z-Phe-Arg-AMC as substrate by fluorometric assay
Procathepsin L [6] = target: T2, Procathepsin L (Homo sapiens, UniProt P07711); assay: Inhibition of human cathepsin-L at 20 uM using Z-Phe-Arg-AMC as substrate by fluorometric assay relative to control
Target sequence in this assay (P07711 114-333 limits assumed): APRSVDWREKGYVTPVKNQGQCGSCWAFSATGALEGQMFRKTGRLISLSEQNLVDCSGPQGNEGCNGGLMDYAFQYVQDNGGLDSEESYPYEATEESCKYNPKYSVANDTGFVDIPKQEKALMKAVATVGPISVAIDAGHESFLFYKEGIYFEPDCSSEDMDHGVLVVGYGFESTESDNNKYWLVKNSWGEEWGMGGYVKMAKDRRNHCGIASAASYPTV

Cathepsin B [7] = target: T3, Cathepsin B (Homo sapiens, UniProt P07858); assay: Inhibition of human cathepsin-B at 20 uM using Z-Phe-Arg-AMC as substrate by fluorometric assay relative to control
[8] = target: T4, Cathepsin B-like protease (Leishmania major, UniProt P90627); assay: Inhibition of Leishmania major MHOM/IL/81/FE/BNI His6-tagged CPC expressed in Pichia pastoris using Cbz-Phe-Arg-AMC as substrate by fluorescence spectrometric method; conditions: read-out: Ki(app)
T4 sequence (P90627 whole entry): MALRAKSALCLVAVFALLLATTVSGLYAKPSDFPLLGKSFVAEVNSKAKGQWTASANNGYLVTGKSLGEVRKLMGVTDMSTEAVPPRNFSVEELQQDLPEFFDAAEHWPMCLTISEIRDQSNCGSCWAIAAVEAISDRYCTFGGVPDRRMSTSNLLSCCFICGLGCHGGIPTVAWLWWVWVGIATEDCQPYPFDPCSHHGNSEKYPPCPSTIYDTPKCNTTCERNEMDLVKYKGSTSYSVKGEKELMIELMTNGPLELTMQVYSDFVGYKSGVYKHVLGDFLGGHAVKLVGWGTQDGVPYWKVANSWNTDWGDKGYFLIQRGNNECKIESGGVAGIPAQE

Procathepsin L [9] = target: T2, Procathepsin L; assay: Inhibition of human cathepsin-L using Z-Phe-Arg-AMC as substrate by fluorometric assay
Target sequence in this assay (P07711 whole entry): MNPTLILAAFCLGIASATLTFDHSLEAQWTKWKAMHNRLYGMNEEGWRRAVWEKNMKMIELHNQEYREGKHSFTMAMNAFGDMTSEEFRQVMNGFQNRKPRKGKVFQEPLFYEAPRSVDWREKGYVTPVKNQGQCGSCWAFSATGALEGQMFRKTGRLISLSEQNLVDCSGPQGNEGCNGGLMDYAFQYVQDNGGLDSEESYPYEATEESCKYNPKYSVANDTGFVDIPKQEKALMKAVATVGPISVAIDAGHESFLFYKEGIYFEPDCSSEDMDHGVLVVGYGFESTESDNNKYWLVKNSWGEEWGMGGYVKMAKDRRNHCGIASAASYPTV

Cathepsin B [10] = target: T3, Cathepsin B; assay: Inhibition of human cathepsin-B using Z-Phe-Arg-AMC as substrate by fluorometric assay
Falcipain 2 = target: T5, Falcipain 2 (Plasmodium falciparum, UniProt Q9N6S8); assay: Inhibition of Plasmodium falciparum falcipain 2 using Z-Phe-Arg-AMC as substrate by fluorometric assay
T5 sequence (Q9N6S8 whole entry): T1 sequence (whole entry)

Leishmania major [11] = assay: Antileishmanial activity against Leishmania major promastigotes at 20 uM; format: functional, organism-based

CC(C)C[C@H](NC(=O)OC(C)(C)C)C(=O)N1CCC[C@@H]1C(=O)N1[C@@H](C(=O)OCc2ccccc2)[C@@H]1C(=O)OCc1ccccc1
pKi (Rhodesain): 5.77
inhibition [1]: inactive
pEC50 (Leishmania major [2]): 4.43
pEC50 (Leishmania major [3]): 5.64
Activity (J774): > 250 µM
inhibition [4]: inactive
pKi [5]: 5.42
inhibition (Procathepsin L [6]): inactive
inhibition (Cathepsin B [7]): inactive
pKi [8]: 4.74

CC(C)C[C@H](NC(=O)OC(C)(C)C)C(=O)N1CCC[C@H]1C(=O)N1[C@@H](C(=O)OCc2ccccc2)[C@@H]1C(=O)OCc1ccccc1
pKi (Procathepsin L [9]): 6.40
pKi (Cathepsin B [10]): 3.94
pKi (Falcipain 2): 6.40
Activity (Leishmania major [11]): inactive
